In patent US10195204B2, “Methods of treating hemoglobinopathies” (DUKE UNIVERSITY, priority 2011, dated 2019):

Tests used:
[1] = system: ERK1/2 phosphorylation in SS RBCs; experiment: ERK1/2 phosphorylation in SS RBCs, Western blot (phosphoERK normalized to total ERK); assay type: cell-based, human
Procedure: Aliquots of packed RBCs were treated with various reagents to affect cAMP signaling or protein phosphorylation. […] Treated RBCs were then washed 5 times with 4 ml PBS with Ca^2+ and Mg^2+. Normal RBCs were used as controls. Prior to adhesion assays, treated RBCs were labeled with PKH 26 red fluorescent cell linker kit (Sigma), following the manufacturer's instructions.
Treated packed RBCs were lysed with hypotonic buffer (5 mM Na2HPO4+1 mM EDTA+0.1% NaN3, pH 8) containing 2 mM phenylmethylsulphonylfluoride (PMSF, Sigma), phosphatase inhibitor cocktail (Sigma) and protease inhibitor cocktail (Sigma). Protein separation by polyacrylamide gel electrophoresis using equal amounts of total RBC membrane ghost proteins per lane, after correcting total protein measurements for residual hemoglobin content, and Western blot^19 using the appropriate Ab were then performed. Mouse 3T3/A31 fibroblast lysate was used as a ERK1/2 positive control for immunoblots. For total ERK1/2, membranes blotted with anti-phosphoERK Ab were stripped and reexposed to Western blotting using anti-ERK1/2 Ab. Bands were analyzed densitometrically using ImageJ software downloaded from the NIH website. PhosphoERK1/2 data were normalized according to total ERK1/2 and are presented as fold change in ERK phosphorylation.

[2] = system: ICAM-4 (LW) phosphorylation; experiment: 32P labeling, ICAM-4 immunoprecipitation and detection of phosphorylation in SS RBCs; assay type: cell-based, human; details: SS RBCs preincubated with inhibitor
Procedure: Cells were then washed 4 times. ICAM-4 protein immunoprecipitation, and total and phospho-ICAM-4 detection were performed as previously described in detail.^4 To further confirm that the immunoprecipitates were specific for ICAM-4, anti-ICAM-4 mAb and the negative control immunoglobulin P3 were used to immunoprecipitate ICAM-4 from non-radiolabeled SS RBCs incubated in the presence or absence of epinephrine. Blots were then immunostained with anti-ICAM-4 mAb.

[3] = system: SS RBC adhesion to TNF-α-activated HUVECs; experiment: Flow chamber adhesion of SS RBCs to TNF-α-activated HUVECs; assay type: cell-based, human; details: for effect on SS RBC adhesion to TNF-α-activated HUVECs: SS RBCs treated with MEK inhibitor (10 μM; RDEA119 1 and 10 μM)
Procedure: Cells were then washed three times with 5 ml PBS with Ca^2+ and Mg^2+. Prior to adhesion assays, washed treated SS RBCs were labeled with PKH 26 red fluorescent cell linker kit (Sigma-Aldrich, St. Louis, Mo.), following the manufacturer's instructions.
Graduated height flow chambers were used to quantify adhesion of RBCs to HUVECs substantially as previously described in detail.^4, 20 In some adhesion studies, slides coated with HUVECs were treated with human recombinant TNF-α at 10 ng/ml for 4 hours. Slides coated with HUVECs treated or not with TNF-α were then washed three times with 20 ml HBSS with 1.26 mM Ca^2+, 0.9 mM Mg^2+ (Gibco, Grand Island, N.Y.) warmed previously to 37° C. and then fit into a variable height flow chamber. The flow chamber was mounted on the stage of an inverted phase contrast microscope (Diaphot, Nikon Inc., Melville, N.Y.) connected to a thermoplate (Tokai Hit Co., Ltd., Japan) set at 37° C. Cells were observed using a video camera (RS photometrics,) attached to the microscope and connected to a Macintosh G4 computer. RBC (3 ml) suspended at 0.2% (vol/vol) in HBSS with Ca^2+, Mg^2+ were infused into the flow chamber and allowed to adhere to the slide for 10 min without flow. Before exposure to flow, a minimum of three fields at each of seven different locations along a line oriented normal to future flow were examined for the total number of fluorescent cells. Fluid flow (HBSS with Ca^2+, Mg^2+) was then started using a calibrated syringe pump. After exposure to flow, the fields were again examined and the number of adherent cells counted. The fraction of adherent cells was presented as (number of cells attached after exposure to flow)/(cells present per field before flow). The wall shear stress was calculated as:
[formula] τw=wall shear stress (dyne/cm^2); Q=volumetric flow rate (cm^3/s); μ is media viscosity, w is the width of the flow channel, and H(x) is the height of the flow chamber as a function of position along the microscope slide. Several investigators have shown that blood flow in small vessels may be continuous, with shear stresses of 1-2 dynes/cm^2, or flow may be intermittent. Our data were obtained using both intermittent and continuous flow conditions.

[4] = system: PMN adhesion to non-activated HUVECs; experiment: Adhesion to HUVECs of PMNs co-incubated with epinephrine-stimulated SS RBCs; assay type: cell-based, human; details: SS RBCs pre-incubated with inhibitor for 1 hour, then 20 nM epinephrine 1 min
Procedure: The cells were then washed prior to admixture with fluorescently-labeled native polymorphonuclear cells (PMNs) obtained from healthy donors at a RBC:PMN ratio of 10:1. After co-incubation for 30 minutes at 37° C., cells mixtures were assayed for their ability to adhere to non-activated HUVECs. […] Downregulation of RBC adhesion receptor activity by targeting ERK may not only decrease SS RBC adhesion to the endothelium but also reduce RBC-stimulated leukocyte activation.

[5] = system: human SS RBC adhesion in inflamed venules and vaso-occlusion; experiment: Intravital microscopy in TNF-α-treated nude mice infused with human SS RBCs treated ex vivo with MEK inhibitor; details: for percentage of venular length occupied by treated SS RBCs: compared to sham
From the text: For some in vivo adhesion studies, packed SS RBCs were fluorescently labeled with the dye Dil (Molecular Probes Inc., Eugene, Oreg.), following the manufacturer's instructions. […] Cell morphology was checked by microscopy.

[6] = system: SS RBC membrane ghost phosphopeptides; experiment: Label-free quantitative phosphoproteomic analysis of SS RBC membrane ghosts; assay type: cell-based, human; details: recombinant ERK2 added to U0126-treated SS RBC ghosts
Procedure: (§1) Ghosted RBCs were spun at 14,000 rpm for 15 min at 4° C. to pellet membranes. Membrane pellets were washed with 1 mL 50 mM ammonium bicarbonate (pH 8.0) with vortexing and were then spun at 14,000 rpm for 30 min at 4° C. The supernatant was then removed and 500 μL of 50 mM ammonium bicarbonate with μL 0.2% acid-labile surfactant (ALS-1) in 50 mM ammonium bicarbonate (pH 8.0) was added. Samples were subjected to probe sonication three-times for 5 sec with cooling on ice between and insoluble material was cleared by centrifugation at 14,000 rpm for 30 mins at 4° C. Samples were normalized to approximately 2 μg/μl following a micro-Bradford assay (Pierce Bioscience), and were reduced with a final concentration of 10 mM dithiothreitol at 80° C. for 20 min. Samples were then alkylated with a final concentration of 20 mM iodoacetamide at room temperature for 45 min and trypsin was added to a final ratio of 1-to-50 (w/w) enzyme-to-protein and allowed to digest at 37° C. for 18 hr. To remove ALS-1, samples were acidified to pH 2.0 with neat TFA, incubated at 60° C. for 2 hrs and spun at 14,000 rpm to remove hydrolyzed ALS-1. Samples were either subjected directly to LC-MS analysis or subjected to a TiO2 based phosphopeptide enriched protocol.
(§2) To enrich for phosphorylated peptides prior to LC-MS analysis, either 1,125 μg and 970 μg of total digested protein from RBC ghosts co-incubated with recombinant active ERK2 experiments and experiments using epinephrine-treated cells, respectively, were brought to near dryness using vacuum centrifugation and then resuspended in 200 μL of 80% acetonitrile, 1% TFA, 50 mg/ml MassPrep Enhancer (pH 2.5) (Waters Corp. Milford, Mass.). Samples were loaded onto an in-house packed TiO2 spin column (Protea Biosciences) with a 562 μg or 485 μg binding capacity for active ERK2 treated or epinephrine treated experiments, respectively. Samples were washed twice with 200 μL 80% acetonitrile, 1% TFA, 50 mg/ml MassPrep Enhancer (pH 2.5) followed by two washes with 200 μL 80% acetonitrile, 1% TFA (pH 2.5). Retained peptides were eluted twice with 100 μL 20% acetonitrile, 5% aqueous ammonia (pH 10.0), acidified to pH 3 with neat formic acid and then brought to dryness using vacuum centrifugation. Prior to LC-MS analysis, each sample was resuspended in 20 μL 2% acetonitrile, 0.1% TFA, 25 mM citric acid (pH 2.5).
Chromatographic separation of phosphopeptide enriched or non-enriched samples was performed on a Waters NanoAquity UPLC equipped with a 1.7 μm BEH130 C1875 μm I.D.×250 mm reversed-phase column. The mobile phase consisted of (A) 0.1% formic acid in water and (B) 0.1% formic acid in acetonitrile. Five μL injections of each sample were trapped for 5 min on a 5 μm Symmetry C18 180 μm I.D.×20 mm column at 20 μl/min in 99.9% A. The analytical column was then switched in-line and the mobile phase was held for 5 min at 5% B before applying a linear elution gradient of 5% B to 40% B or 5% B to 30% B over 90 min at 300 nL/min for ERK2 treated experiments or epinephrine treated experiments, respectively. The analytical column was connected to fused silica PicoTip emitter (New Objective, Cambridge, Mass.) with a 10 μm tip orifice and coupled to the mass spectrometer through an electrospray interface.
(§3) MS data from each phosphopeptide enriched sample was acquired on a Thermo LTQ-Orbitrap XL mass spectrometer operating in positive-ion mode with an electrospray voltage of 2.0 kV with real-time lockmass correction on ambiant polycyclodimethylsiloxane (m/z 445.120025) enabled. The instrument was set to acquire a precursor MS scan from m/z 400-2000 with r=60,000 at m/z 400 and a target AGC setting of 1e6 ions. Each sample was analyzed four-times, one of which was used for additional qualitative identifications only and was not included in the quantitative analysis, with product ions above a threshold of 500 counts were acquired for the top 5 most intense ions in the linear ion trap. […]

[7] = system: AA RBC membrane ghost phosphopeptides; experiment: Label-free quantitative phosphoproteomic analysis of normal (AA) RBC membrane ghosts; assay type: cell-based, human
Procedure: as §1
as §2, with “Prior to LC-MS analysis, each sample was resuspended in 20 μL 2% acetonitrile, 0.1% TFA, 25 mM citric acid (pH 2.5).” left out
as §3, with “The instrument was set to acquire a precursor MS scan from m/z 400-2000 with r=60,000 at m/z 400 and a target AGC setting of 1e6 ions.” left out

[8] = SS RBCs treated ex vivo with 10 μM inhibitor for 1 hour, n=5

14-22 amide: PKA-specific inhibitor (PKAI)
effect on epinephrine-induced ERK1/2 phosphorylation ([1]; SS RBCs pre-incubated with inhibitor, then 20 nM epinephrine 1 min): completely blocked | effect on basal ERK phosphorylation ([1]; SS RBCs, 30 nM): did not significantly decrease | effect on combined effect of epinephrine and SPI on ICAM-4 phosphorylation [2]: significantly decreased

Cn1cnc2c(F)c(Nc3ccc(Br)cc3Cl)c(C(=O)NOCCO)cc21 [AZD6244]
effect on SS RBC adhesion to TNF-α-activated HUVECs [3]: significantly abolished | ability of epinephrine-activated SS RBCs to promote neutrophil (PMN) adhesion to HUVECs [4]: significantly decreased

COc1c(C=O)c(O)cc2c1C(=O)c1ccccc1C2=O [Damnacanthal]
effect on PTx-induced ERK phosphorylation ([1]; SS RBCs, 2 μg/ml PTx): did not abrogate

CC(=O)Nc1cccc(-n2c(=O)n(C3CC3)c(=O)c3c(Nc4ccc(I)cc4F)n(C)c(=O)c(C)c32)c1 [GSK1120212]
effect on SS RBC adhesion to TNF-α-activated HUVECs [3]: significantly abolished | ability of epinephrine-activated SS RBCs to promote neutrophil (PMN) adhesion to HUVECs [4]: significantly decreased

COc1cc(F)c(F)c(Nc2ccc(I)cc2F)c1NS(=O)(=O)C1(C[C@H](O)CO)CC1 [RDEA119]
effect on SS RBC adhesion to TNF-α-activated HUVECs [3]: significantly abolished | human SS RBC adhesion in inflamed venules [5, 8]: dramatically decreased | vessel obstruction [5, 8]: prevented vessel obstruction | percentage of venular length occupied by treated SS RBCs ([5]; vessels 25 μm in diameter): significantly decreased | percentage of venular length occupied by treated SS RBCs ([5]; vessels with a diameter >25 μm): significantly decreased | ability of epinephrine-activated SS RBCs to promote neutrophil (PMN) adhesion to HUVECs [4]: significantly decreased

ERK2: commercial recombinant active human ERK2 (Sigma) added to RBC membrane ghosts
change of Ser540/Ser542 doubly phosphorylated peptide within protein 4.1 [6]: +1.7 fold | increase of Ser540/Ser542 doubly phosphorylated peptide within protein 4.1 ([7]; recombinant ERK2 added to U0126-treated AA RBC ghosts): 1.7 fold | increase of Ser540/Ser542 doubly phosphorylated peptide within protein 4.1 ([7]; recombinant ERK2 added to untreated AA RBC ghosts): 2.1 fold

Pertussis toxin [PTx]
increase in basal phosphorylation of ERK1/2 ([1]; SS RBCs, 1 μg/ml PTx alone): 2.04±0.1 fold | increase in basal phosphorylation of ERK1/2 ([1]; SS RBCs, 2 μg/ml PTx alone): 2.53±0.11 fold

TNF-α
increase in SS RBC adhesion vs non-activated HUVECs ([3]; HUVECs treated with TNF-α, shear stress 2 dynes/cm^2, intermittent flow): 2.6 fold
